Consider three compounds from paper PMC11851430, “Workflow for E3 Ligase Ligand Validation for PROTAC Development” (ACS Chemical Biology, 2025).

Molecules are shown by their SMILES.

Assay in all cases: DSF assay
Holding throughout (assay type): binding
Common to all, as to settings: 20 µM compound
For orientation: In DSF a fluorescence change marks the thermal transition of the protein.

In one assay the target is T1, AURKBA (Homo sapiens, UniProt Q96GD4).
T1 construct: purchased in-house DSF panel (SGC-style construct names; the trailing A/B is a construct suffix)

For another assay, the target named is T2, BMXA (Homo sapiens, UniProt P51813).
T2 construct: purchased in-house DSF panel (SGC-style construct names; the trailing A/B is a construct suffix)

The next assay has as its target T3, CAMK1DA (Homo sapiens, UniProt Q8IU85).
T3 construct: purchased in-house DSF panel (SGC-style construct names; the trailing A/B is a construct suffix)

The target in the next assay is T4, CAMK4A (Homo sapiens, UniProt Q16566).
T4 construct: purchased in-house DSF panel (SGC-style construct names; the trailing A/B is a construct suffix)
T4 sequence (Q16566 1-473): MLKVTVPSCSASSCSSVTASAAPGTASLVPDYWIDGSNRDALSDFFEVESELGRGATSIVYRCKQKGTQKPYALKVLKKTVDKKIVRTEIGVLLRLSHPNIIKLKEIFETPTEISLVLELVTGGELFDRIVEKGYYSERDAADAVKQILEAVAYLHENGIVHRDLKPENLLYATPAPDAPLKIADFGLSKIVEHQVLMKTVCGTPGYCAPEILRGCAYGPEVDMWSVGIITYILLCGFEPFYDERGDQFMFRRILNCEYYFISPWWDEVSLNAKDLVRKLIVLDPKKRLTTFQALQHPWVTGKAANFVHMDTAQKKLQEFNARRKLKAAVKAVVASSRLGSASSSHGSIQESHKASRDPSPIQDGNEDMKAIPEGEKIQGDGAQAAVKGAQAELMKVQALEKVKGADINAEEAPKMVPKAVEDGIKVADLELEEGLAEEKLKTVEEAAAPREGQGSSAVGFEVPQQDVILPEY

In the next assay the target is T5, CDKL1A (Homo sapiens, UniProt Q00532).
T5 construct: purchased in-house DSF panel (SGC-style construct names; the trailing A/B is a construct suffix)

Another assay has as its target T6, DCAMKL1A (Homo sapiens, UniProt O15075).
T6 construct: purchased in-house DSF panel (SGC-style construct names; the trailing A/B is a construct suffix)
T6 sequence (O15075 372-649): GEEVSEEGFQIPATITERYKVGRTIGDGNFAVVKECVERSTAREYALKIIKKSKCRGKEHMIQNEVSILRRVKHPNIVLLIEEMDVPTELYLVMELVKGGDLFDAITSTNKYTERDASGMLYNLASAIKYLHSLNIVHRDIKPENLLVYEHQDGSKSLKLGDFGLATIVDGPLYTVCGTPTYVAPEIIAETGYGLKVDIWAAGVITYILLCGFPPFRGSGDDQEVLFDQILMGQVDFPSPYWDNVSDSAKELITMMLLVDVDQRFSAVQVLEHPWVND

The target in the next assay is T7, DYRK1A (Homo sapiens, UniProt Q13627).
T7 construct: purchased in-house DSF panel (SGC-style construct names; the trailing A/B is a construct suffix)

Another assay concerns the target T8, EPHB3A (Homo sapiens, UniProt P54753).
T8 construct: purchased in-house DSF panel (SGC-style construct names; the trailing A/B is a construct suffix)
T8 sequence (P54753 633-896): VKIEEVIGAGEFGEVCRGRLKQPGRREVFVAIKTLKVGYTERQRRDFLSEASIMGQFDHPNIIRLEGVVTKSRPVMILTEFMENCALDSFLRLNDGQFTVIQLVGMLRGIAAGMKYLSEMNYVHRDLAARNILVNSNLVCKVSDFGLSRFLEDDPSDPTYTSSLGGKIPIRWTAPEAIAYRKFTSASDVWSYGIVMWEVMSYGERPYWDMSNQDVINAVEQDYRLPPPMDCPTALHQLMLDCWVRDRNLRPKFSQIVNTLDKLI

In a further assay the target is T9, FGFR1B (Homo sapiens, UniProt P11362).
T9 construct: purchased in-house DSF panel (SGC-style construct names; the trailing A/B is a construct suffix)

The next assay has as its target GPRK5A (Homo sapiens, UniProt P34947).
A further assay concerns the target T10, MAP2K6A (Homo sapiens, UniProt P52564).
T10 construct: purchased in-house DSF panel (SGC-style construct names; the trailing A/B is a construct suffix)
T10 sequence (P52564 1-334): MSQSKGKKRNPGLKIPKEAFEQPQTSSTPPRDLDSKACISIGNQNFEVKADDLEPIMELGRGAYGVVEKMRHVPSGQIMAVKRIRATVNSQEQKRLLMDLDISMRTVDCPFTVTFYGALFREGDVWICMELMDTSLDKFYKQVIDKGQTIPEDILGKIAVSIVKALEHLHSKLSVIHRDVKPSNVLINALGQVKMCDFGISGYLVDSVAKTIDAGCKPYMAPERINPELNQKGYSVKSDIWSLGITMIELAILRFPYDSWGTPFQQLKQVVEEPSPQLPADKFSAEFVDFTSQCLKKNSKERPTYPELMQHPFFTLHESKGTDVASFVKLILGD

The target in another assay is T11, MAP3K5A (Homo sapiens, UniProt Q99683).
T11 construct: purchased in-house DSF panel (SGC-style construct names; the trailing A/B is a construct suffix)

The next assay deals with T12, MAPKAPK2A (Homo sapiens, UniProt P49137).
T12 construct: purchased in-house DSF panel (SGC-style construct names; the trailing A/B is a construct suffix)

The next assay addresses T13, PCTK1A (Homo sapiens, UniProt Q00536).
T13 construct: purchased in-house DSF panel (SGC-style construct names; the trailing A/B is a construct suffix)

In a further assay the target is T14, PDK4A (Homo sapiens, UniProt Q16654).
T14 construct: purchased in-house DSF panel (SGC-style construct names; the trailing A/B is a construct suffix)

Another assay concerns the target T15, PLK4A (Homo sapiens, UniProt O00444).
T15 construct: purchased in-house DSF panel (SGC-style construct names; the trailing A/B is a construct suffix)
T15 sequence (O00444 2-275): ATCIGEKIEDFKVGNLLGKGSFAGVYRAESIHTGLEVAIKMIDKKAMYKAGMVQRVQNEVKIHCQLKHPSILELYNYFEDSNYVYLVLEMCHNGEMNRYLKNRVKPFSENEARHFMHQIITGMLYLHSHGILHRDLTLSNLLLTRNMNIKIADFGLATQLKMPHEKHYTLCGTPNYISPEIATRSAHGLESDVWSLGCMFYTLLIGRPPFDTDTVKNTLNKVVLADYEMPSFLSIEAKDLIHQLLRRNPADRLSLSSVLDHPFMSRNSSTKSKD

Another assay has as its target T16, RIOK1A (Homo sapiens, UniProt Q9BRS2).
T16 construct: purchased in-house DSF panel (SGC-style construct names; the trailing A/B is a construct suffix)
T16 sequence (Q9BRS2 143-494): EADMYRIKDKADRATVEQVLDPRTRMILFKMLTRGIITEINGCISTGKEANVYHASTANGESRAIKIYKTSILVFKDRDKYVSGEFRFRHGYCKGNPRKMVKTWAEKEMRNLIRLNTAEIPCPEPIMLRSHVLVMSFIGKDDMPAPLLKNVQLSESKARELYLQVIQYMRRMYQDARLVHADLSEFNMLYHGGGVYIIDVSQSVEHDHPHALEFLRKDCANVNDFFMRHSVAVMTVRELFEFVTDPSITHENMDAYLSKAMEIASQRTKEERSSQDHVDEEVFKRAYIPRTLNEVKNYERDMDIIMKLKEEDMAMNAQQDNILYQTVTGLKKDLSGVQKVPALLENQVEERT

A further assay has as its target T17, STK39A (Homo sapiens, UniProt Q9UEW8).
T17 construct: purchased in-house DSF panel (SGC-style construct names; the trailing A/B is a construct suffix)

T5 sequence (Q00532 1-303): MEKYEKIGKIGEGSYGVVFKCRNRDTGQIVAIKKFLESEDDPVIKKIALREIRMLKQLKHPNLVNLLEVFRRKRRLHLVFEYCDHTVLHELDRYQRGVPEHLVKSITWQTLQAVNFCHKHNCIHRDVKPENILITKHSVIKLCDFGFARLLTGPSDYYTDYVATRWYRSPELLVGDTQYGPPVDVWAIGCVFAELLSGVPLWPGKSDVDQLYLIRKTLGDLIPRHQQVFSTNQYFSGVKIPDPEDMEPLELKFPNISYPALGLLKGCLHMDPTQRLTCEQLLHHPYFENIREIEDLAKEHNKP
T9 sequence (P11362 456-767): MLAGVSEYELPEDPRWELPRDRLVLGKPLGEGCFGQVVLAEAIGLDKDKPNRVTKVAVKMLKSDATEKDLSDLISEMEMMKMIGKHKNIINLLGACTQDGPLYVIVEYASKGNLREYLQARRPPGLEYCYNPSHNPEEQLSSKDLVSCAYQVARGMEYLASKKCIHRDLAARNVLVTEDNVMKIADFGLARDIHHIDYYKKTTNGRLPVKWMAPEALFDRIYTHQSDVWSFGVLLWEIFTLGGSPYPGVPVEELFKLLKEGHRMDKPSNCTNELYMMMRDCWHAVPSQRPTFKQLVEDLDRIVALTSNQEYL
T12 sequence (P49137 64-325): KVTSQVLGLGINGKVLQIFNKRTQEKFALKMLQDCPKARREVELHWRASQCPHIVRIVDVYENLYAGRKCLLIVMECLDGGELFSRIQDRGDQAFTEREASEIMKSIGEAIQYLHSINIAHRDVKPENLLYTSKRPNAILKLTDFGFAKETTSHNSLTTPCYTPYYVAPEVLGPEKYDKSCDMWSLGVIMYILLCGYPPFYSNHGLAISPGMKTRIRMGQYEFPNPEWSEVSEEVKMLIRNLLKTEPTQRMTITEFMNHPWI
T3 sequence (Q8IU85 whole entry): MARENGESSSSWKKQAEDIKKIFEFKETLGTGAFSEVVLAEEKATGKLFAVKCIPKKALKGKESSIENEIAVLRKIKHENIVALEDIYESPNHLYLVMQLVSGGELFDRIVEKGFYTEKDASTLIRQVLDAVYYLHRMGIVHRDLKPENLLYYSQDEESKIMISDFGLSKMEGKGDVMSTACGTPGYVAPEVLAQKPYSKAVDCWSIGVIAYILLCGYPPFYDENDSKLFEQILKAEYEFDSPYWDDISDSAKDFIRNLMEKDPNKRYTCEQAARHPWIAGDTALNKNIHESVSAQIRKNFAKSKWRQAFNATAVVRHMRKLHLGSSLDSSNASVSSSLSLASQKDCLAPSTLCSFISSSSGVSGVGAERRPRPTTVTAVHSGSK
T2 sequence (P51813 411-675): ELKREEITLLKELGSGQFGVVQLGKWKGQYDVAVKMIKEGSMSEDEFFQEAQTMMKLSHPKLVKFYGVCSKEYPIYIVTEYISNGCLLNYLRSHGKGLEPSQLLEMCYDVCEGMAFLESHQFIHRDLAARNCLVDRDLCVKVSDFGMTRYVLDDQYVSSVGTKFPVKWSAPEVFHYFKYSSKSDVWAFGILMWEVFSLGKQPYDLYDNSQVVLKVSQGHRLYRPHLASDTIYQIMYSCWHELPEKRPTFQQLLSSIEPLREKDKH
T1 sequence (Q96GD4 whole entry): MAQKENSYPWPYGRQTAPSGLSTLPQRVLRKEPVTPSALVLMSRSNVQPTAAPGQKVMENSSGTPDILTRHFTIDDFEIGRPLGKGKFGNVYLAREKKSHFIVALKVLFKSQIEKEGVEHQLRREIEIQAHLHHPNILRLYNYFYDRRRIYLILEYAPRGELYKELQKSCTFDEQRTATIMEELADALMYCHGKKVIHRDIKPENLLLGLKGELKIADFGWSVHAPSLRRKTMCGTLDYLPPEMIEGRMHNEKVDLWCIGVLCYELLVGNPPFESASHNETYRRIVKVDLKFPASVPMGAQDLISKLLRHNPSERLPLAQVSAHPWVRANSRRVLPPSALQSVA
T11 sequence (Q99683 659-951): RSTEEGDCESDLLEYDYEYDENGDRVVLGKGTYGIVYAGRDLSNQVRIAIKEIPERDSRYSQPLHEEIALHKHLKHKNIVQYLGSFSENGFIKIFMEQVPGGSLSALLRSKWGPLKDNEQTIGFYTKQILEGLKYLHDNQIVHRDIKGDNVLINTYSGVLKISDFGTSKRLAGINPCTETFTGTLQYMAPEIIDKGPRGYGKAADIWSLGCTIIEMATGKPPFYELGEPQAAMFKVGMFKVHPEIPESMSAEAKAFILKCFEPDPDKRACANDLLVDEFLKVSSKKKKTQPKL
T14 sequence (Q16654 whole entry): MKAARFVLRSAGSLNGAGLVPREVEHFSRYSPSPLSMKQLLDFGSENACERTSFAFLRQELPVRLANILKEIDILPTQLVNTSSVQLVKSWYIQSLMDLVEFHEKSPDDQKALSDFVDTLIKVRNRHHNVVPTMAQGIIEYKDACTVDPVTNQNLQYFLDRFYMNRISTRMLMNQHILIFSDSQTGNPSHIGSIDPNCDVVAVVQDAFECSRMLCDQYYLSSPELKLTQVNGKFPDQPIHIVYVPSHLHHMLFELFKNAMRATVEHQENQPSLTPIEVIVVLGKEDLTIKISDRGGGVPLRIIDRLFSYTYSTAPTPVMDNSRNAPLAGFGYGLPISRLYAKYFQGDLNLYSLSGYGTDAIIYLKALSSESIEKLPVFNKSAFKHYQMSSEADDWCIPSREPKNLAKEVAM
T13 sequence (Q00536 163-478): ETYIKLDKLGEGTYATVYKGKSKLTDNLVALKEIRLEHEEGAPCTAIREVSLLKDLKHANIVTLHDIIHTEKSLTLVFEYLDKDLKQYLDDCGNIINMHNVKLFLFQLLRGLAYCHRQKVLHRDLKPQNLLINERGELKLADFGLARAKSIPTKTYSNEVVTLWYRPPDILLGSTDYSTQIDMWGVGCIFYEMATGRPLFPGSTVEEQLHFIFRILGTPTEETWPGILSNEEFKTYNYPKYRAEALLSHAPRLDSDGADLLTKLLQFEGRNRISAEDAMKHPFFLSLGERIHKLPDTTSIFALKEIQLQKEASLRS
Chain of GPRK5A (P34947 186-514 limits assumed): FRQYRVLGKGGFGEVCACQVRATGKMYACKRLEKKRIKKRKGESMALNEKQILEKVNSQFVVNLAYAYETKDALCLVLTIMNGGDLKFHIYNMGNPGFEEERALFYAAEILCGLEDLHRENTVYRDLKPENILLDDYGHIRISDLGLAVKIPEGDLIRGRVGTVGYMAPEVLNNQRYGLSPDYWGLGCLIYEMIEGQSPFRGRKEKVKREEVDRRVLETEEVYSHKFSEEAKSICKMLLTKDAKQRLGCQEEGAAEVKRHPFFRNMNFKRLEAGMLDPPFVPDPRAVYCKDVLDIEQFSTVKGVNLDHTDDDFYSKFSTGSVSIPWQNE

In general, ΔTm refers to the change in melting temperature against a reference sample. Take `CCOC(=O)c1cc(Nc2cc(C3CC3)[nH]n2)nc(Nc2ccc(CC#N)cc2)n1` [compound 5]: the thermal shift (ΔTm) at 20 µM on AURKBA was 8.24 °C; at BMXA it was 2.01 °C; at CAMK1DA it was 3.94 °C; at CAMK4A, 3.64 °C; at CDKL1A, 6.89 °C; at DCAMKL1A, 0.68 °C. The ΔTm at 20 µM is 6.85 °C at DYRK1A; 4.23 °C at EPHB3A; 5.22 °C at FGFR1B; 1.7 °C at GPRK5A; 8.41 °C at MAP2K6A; 6.97 °C at MAP3K5A. Further, the shift in melting temperature (ΔTm) at 20 µM on MAPKAPK2A was found to be 0.53 °C; on PCTK1A, 5.96 °C; at PDK4A, 0.03 °C; on PLK4A it was 13.2 °C; on RIOK1A, 4.9 °C; on STK39A, 5.53 °C.
On to `CC(C)(C)OC(=O)NCCOCCOCCOCCOCCC(=O)N1CCN(c2cc(Nc3cc(C4CC4)[nH]n3)nc(Nc3ccc(CC#N)cc3)n2)CC1` [4-L], for which the ΔTm at 20 µM at AURKBA is 12.7 °C; at BMXA, 5.53 °C; at CAMK1DA, 2.24 °C; on CAMK4A it was 2.43 °C; at CDKL1A, 6.63 °C; on DCAMKL1A, 0.22 °C. Further, the ΔTm at 20 µM is 7.48 °C at DYRK1A; 6.97 °C at EPHB3A; 6.61 °C on FGFR1B; 2.06 °C at GPRK5A; 5.77 °C on MAP2K6A; 8.63 °C at MAP3K5A. Moreover, the ΔTm at 20 µM on MAPKAPK2A was 0.42 °C; at PCTK1A it was 4.55 °C; on PDK4A, 1.49 °C; on PLK4A, 16.1 °C; at RIOK1A, -0.05 °C; at STK39A, 6.22 °C.
As to `CC(C)(C)OC(=O)NCCCOCCOCCOCCCNC(=O)c1cc(Nc2cc(C3CC3)[nH]n2)nc(Nc2ccc(CC#N)cc2)n1` [5-L], the ΔTm at 20 µM at AURKBA worked out at 2.62 °C; at BMXA it was 1.62 °C; on CAMK1DA it was 3.86 °C; at CAMK4A it was 5.11 °C; on CDKL1A it was 6.41 °C; on DCAMKL1A it was 4.7 °C. Besides, the shift in melting temperature (ΔTm) at 20 µM at DYRK1A was found to be 8.01 °C; on EPHB3A, 2.47 °C; at FGFR1B it was 3.47 °C; at GPRK5A it was 2.55 °C; on MAP2K6A, 5.96 °C; on MAP3K5A, 8.95 °C. The ΔTm at 20 µM at MAPKAPK2A was 0.95 °C; at PCTK1A, 4.53 °C; at PDK4A, 0.13 °C; at PLK4A it was 11.6 °C; at RIOK1A, 5.35 °C; at STK39A it was 6.54 °C.
